Data taken from PubChem BioAssay AID256 (DTP/NCI, 2004).
Inconclusive results and toxic doses are left out. Rule for the calls: active = survival T/C of 150% or more; inactive = T/C below 125% in these data.

System: CD2F1 mice, L1210 leukemia ip, survival T/C
Experiment: NCI In Vivo Anticancer Drug Screen. Data for tumor model L1210 Leukemia (intraperitoneal) in CD2F1 (CDF1) mice
Conditions: higher = longer survival
Method in brief: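 Ratio T/C, where T is the treated-group value and C the vehicle-dosed control value, from mice implanted with a transplantable tumor.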

[1] = endpoint: mean survival time, dose: 100.0 mg/kg/injection, schedule: Q01DX009 (ip), vehicle: Klucel (hydroxypropylcellulose) (HPC)
[2] = endpoint: mean survival time, dose: 200.0 mg/kg/injection, schedule: Q01DX009 (ip), vehicle: Klucel (hydroxypropylcellulose) (HPC)
[3] = endpoint: mean survival time, dose: 100.0 mg/kg/injection, schedule: Q01DX009 (ip), vehicle: saline with Tween-80
[4] = endpoint: mean survival time, dose: 200.0 mg/kg/injection, schedule: Q01DX009 (ip), vehicle: saline with Tween-80
[5] = endpoint: mean survival time, dose: 400.0 mg/kg/injection, schedule: Q01DX009 (ip), vehicle: saline with Tween-80
[6] = endpoint: mean survival time, dose: 100.0 mg/kg/injection, schedule: Q04DX003 (ip), vehicle: saline with Tween-80
[7] = endpoint: mean survival time, dose: 200.0 mg/kg/injection, schedule: Q04DX003 (ip), vehicle: saline with Tween-80
[8] = endpoint: mean survival time, dose: 400.0 mg/kg/injection, schedule: Q04DX003 (ip), vehicle: saline with Tween-80

Measured: T/C

CC(C)(C)OC(=O)C(CC(=O)O)=C(c1ccccc1)c1ccccc1
inactive: [1] 102 % of control | endpoint: mean survival time, dose: 100.0 mg/kg/injection, schedule: Q04DX003 (ip), vehicle: Klucel (hydroxypropylcellulose) (HPC) 101 % of control | [2] 100 % of control | endpoint: mean survival time, dose: 200.0 mg/kg/injection, schedule: Q04DX003 (ip), vehicle: Klucel (hydroxypropylcellulose) (HPC) 103 % of control | endpoint: mean survival time, dose: 400.0 mg/kg/injection, schedule: Q01DX009 (ip), vehicle: Klucel (hydroxypropylcellulose) (HPC) 104 % of control | endpoint: mean survival time, dose: 400.0 mg/kg/injection, schedule: Q04DX003 (ip), vehicle: Klucel (hydroxypropylcellulose) (HPC) 109 % of control

COC(=O)C(C(=O)OC)C(Br)(OC(C)=O)OC(C)=O
inactive: [3] 97 % of control | [4] 104 % of control | [5] 109 % of control

OCC1OC(n2cnc3c(N4CCCC4)ncnc32)C(O)C1O (stereo unspecified)
inactive: endpoint: mean survival time, dose: 12.5 mg/kg/injection, schedule: Q01DX005 (ip), vehicle: other 101 % of control | endpoint: mean survival time, dose: 25.0 mg/kg/injection, schedule: Q01DX005 (ip), vehicle: other 101 % of control | endpoint: mean survival time, dose: 50.0 mg/kg/injection, schedule: Q01DX005 (ip), vehicle: other 108 % of control | endpoint: mean survival time, dose: 100.0 mg/kg/injection, schedule: Q01DX005 (ip), vehicle: other 106 % of control | endpoint: mean survival time, dose: 200.0 mg/kg/injection, schedule: Q01DX005 (ip), vehicle: other 96 % of control

[Cl][Pt+2][Cl].[NH-]CCC([NH-])C(=O)O (stereo unspecified)
inactive: endpoint: mean survival time, dose: 12.5 mg/kg/injection, schedule: Q04DX003 (ip), vehicle: saline 107 % of control | endpoint: mean survival time, dose: 25.0 mg/kg/injection, schedule: Q04DX003 (ip), vehicle: saline 121 % of control | endpoint: mean survival time, dose: 50.0 mg/kg/injection, schedule: Q04DX003 (ip), vehicle: saline 115 % of control

CSc1nc(N)n2nccc2n1
inactive: endpoint: median survival time, dose: 50.0 mg/kg/injection, schedule: Q01DX005 (ip), vehicle: saline 102 % of control | endpoint: median survival time, dose: 100.0 mg/kg/injection, schedule: Q01DX005 (ip), vehicle: saline 95 % of control | endpoint: median survival time, dose: 200.0 mg/kg/injection, schedule: Q01DX005 (ip), vehicle: saline 95 % of control

O=C(N/N=C\c1ccc([N+](=O)[O-])cc1)c1ccccc1
inactive: [6] 94 % of control | [7] 94 % of control | [8] 92 % of control

O=C1N(C2CCCCC2)CC2C(c3ccccc3)NNC12O (stereo unspecified)
inactive: [3] 103 % of control | [6] 97 % of control | [4] 90 % of control | [7] 97 % of control | [5] 100 % of control | [8] 98 % of control

CN(C)CCN(Cc1ccc(Cl)cc1)c1ccccn1
inactive: endpoint: mean survival time, dose: 3.13 mg/kg/injection, schedule: Q01DX009 (ip), vehicle: saline with Tween-80 95 % of control | endpoint: mean survival time, dose: 6.25 mg/kg/injection, schedule: Q01DX009 (ip), vehicle: saline with Tween-80 109 % of control

N=C(N)c1ccc(OCCCCOc2ccc(N)cc2)cc1
inactive: endpoint: mean survival time, dose: 50.0 mg/kg/injection, schedule: Q01DX009 (ip), vehicle: Klucel (hydroxypropylcellulose) (HPC) 101 % of control | [1] 94 % of control | [2] 119 % of control

NC(=O)C1CCCCC1C(N)=O (stereo unspecified)
inactive: [3] 105 % of control | [4] 105 % of control | [5] 103 % of control

O=P(OCc1ccccc1)(N(CCCl)CCCl)N1CCOCC1 (stereo unspecified)
inactive: endpoint: mean survival time, dose: 62.5 mg/kg/injection, schedule: Q01DX010 (ip), vehicle: saline 103 % of control | endpoint: mean survival time, dose: 125.0 mg/kg/injection, schedule: Q01DX010 (ip), vehicle: saline 101 % of control | endpoint: mean survival time, dose: 250.0 mg/kg/injection, schedule: Q01DX010 (ip), vehicle: saline 104 % of control

Cc1ccc(C(=O)C2CC(Br)C(Br)CC2C(=O)c2ccc(C)cc2)cc1 (stereo unspecified)
inactive: [3] 90 % of control | [6] 100 % of control | [4] 86 % of control | [7] 100 % of control | [5] 86 % of control | [8] 97 % of control
